Measurements published in patent US11649255B2, “Indazoles as hematopoietic progenitor kinase 1 (HPK1) inhibitors and methods using same” (1st Biotherapeutics, Inc., priority 2020, dated 2023).

Target: recombinant human HPK1 (Homo sapiens (Human), UniProt Q92918)
Experiment: HPK1 kinase assay (ADP-Glo)
Format: biochemical
Details: 25 μM ATP, MBP substrate
Summary of the method: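 Activity was read as ADP formed, detected by ADP-Glo luminescence after the reaction of 5 ng recombinant human HPK1 with MBP and ATP (stocks 0.5 μg/μl and 25 μM) for 40 min at 30 °C. Buffer was Tris pH 7.5 with MgCl2, BSA and DTT, with compound in 0.5% DMSO. IC50 came from inhibition curves.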

Sequence of recombinant human HPK1 (Q92918 whole entry): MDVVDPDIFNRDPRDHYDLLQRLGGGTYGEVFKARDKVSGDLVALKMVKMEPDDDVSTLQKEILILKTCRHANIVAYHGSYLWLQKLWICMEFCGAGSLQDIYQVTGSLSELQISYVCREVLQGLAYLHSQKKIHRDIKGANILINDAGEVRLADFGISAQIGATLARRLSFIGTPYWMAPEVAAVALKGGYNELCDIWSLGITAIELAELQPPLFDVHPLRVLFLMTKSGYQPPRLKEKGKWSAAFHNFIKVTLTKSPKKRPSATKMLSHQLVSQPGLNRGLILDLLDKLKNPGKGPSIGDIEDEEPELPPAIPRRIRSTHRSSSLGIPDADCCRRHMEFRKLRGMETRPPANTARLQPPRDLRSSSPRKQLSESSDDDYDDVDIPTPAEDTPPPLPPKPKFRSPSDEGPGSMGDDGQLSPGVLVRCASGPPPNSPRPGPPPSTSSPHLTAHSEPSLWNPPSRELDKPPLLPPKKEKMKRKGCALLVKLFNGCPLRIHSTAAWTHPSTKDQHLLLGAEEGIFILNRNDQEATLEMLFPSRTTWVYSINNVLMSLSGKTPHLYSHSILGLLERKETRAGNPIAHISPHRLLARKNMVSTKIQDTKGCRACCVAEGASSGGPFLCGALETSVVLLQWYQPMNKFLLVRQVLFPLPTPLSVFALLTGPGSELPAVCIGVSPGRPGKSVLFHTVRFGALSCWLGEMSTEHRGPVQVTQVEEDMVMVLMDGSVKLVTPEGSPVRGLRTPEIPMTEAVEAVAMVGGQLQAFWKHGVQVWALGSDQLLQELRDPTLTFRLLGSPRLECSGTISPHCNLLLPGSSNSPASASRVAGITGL

Row | Compound | IC50
1 | Cc1ccc2[nH]ncc2c1-c1ccc2nc(NC(=O)C3CC3(F)F)sc2c1 (centres unmarked) [Example 5, 2,2-difluoro-N-(6-(5-methyl-1H-indazol-4-yl)benzo[d]thiazol-2-yl)cyclopropane-1-carboxamide] | 101 to 500 nM
2 | N#Cc1c(F)cc2[nH]ncc2c1-c1ccc2nc(NC(=O)[C@@H]3C[C@@H]3F)sc2n1 [Example 157, (1S,2S)-N-(5-(5-cyano-6-fluoro-1H-indazol-4-yl)thiazolo[5,4-b]pyridin-2-yl)-2-fluorocyclopropane-1-carboxamide] | 101 to 500 nM
3 | CNNc1c(F)c(Cl)c(-c2ccc3nc(NC(=O)[C@@H]4C[C@@H]4F)sc3n2)c2cn[nH]c12 [Example 191, (1S,2S)-N-(5-(5-chloro-6-fluoro-7-(2-methylhydrazineyl)-1H-indazol-4-yl)thiazolo[5,4-b]pyridin-2-yl)-2-fluorocyclopropane-1-carboxamide] | < 100 nM
4 | O=C(Nc1cn2cc(-c3c(C(F)(F)F)ccc4[nH]ncc34)ccc2n1)C1CC1 [Example 226, N-(6-(5-(trifluoromethyl)-1H-indazol-4-yl)imidazo[1,2-a]pyridin-2-yl)cyclopropanecarboxamide] | < 100 nM
5 | CSc1ccc2[nH]ncc2c1-c1ccc2nc(NC(=O)C3CC3)cn2c1 [Example 247, N-(6-(5-(methylthio)-1H-indazol-4-yl)imidazo[1,2-a]pyridin-2-yl)cyclopropanecarboxamide] | < 100 nM
6 | C=CC(=O)Nc1cc(Cl)c(-c2ccc3nc(NC(=O)[C@@H]4C[C@@H]4F)cn3c2)c2cn[nH]c12 [Example 276, (1S,2S)-N-(6-(7-acrylamido-5-chloro-1H-indazol-4-yl)imidazo[1,2-a]pyridin-2-yl)-2-fluorocyclopropane-1-carboxamide] | < 100 nM
7 | O=C(Nc1cc2cc(-c3c(Cl)ccc4[nH]ncc34)ccn2n1)[C@@H]1C[C@@H]1F [Example 448, (1S,2S)-N-(5-(5-chloro-1H-indazol-4-yl)pyrazolo[1,5-a]pyridin-2-yl)-2-fluorocyclopropane-1-carboxamide] | < 100 nM
8 | C#Cc1ccc2[nH]ncc2c1-c1ccc2nc(NC(=O)[C@@H]3C[C@@H]3F)sc2c1 [Example 39, (1S,2S)-N-(6-(5-ethynyl-1H-indazol-4-yl)benzo[d]thiazol-2-yl)-2-fluorocyclopropane-1-carboxamide] | 101 to 500 nM
9 | C=Cc1c(F)c(Cl)c(-c2ccc3nc(NC(=O)[C@@H]4C[C@@H]4F)sc3c2)c2cn[nH]c12 [Example 61, (1S,2S)-N-(6-(5-chloro-6-fluoro-7-vinyl-1H-indazol-4-yl)benzo[d]thiazol-2-yl)-2-fluorocyclopropane-1-carboxamide] | < 100 nM
10 | CN(C)c1c(F)c(C(F)(F)F)c(-c2ccc3nc(NC(=O)[C@@H]4C[C@@H]4F)sc3n2)c2cn[nH]c12 [Example 207, (1S,2S)-N-(5-(7-(dimethylamino)-6-fluoro-5-(trifluoromethyl)-1H-indazol-4-yl)thiazolo[5,4-b]pyridin-2-yl)-2-fluorocyclopropane-1-carboxamide] | < 100 nM
11 | Cc1c(F)c(N(C)C)c2[nH]ncc2c1-c1ccc2nc(NC(=O)[C@@H]3C[C@@H]3F)cn2c1 [Example 273, (1S,2S)-N-(6-(7-(dimethylamino)-6-fluoro-5-methyl-1H-indazol-4-yl)imidazo[1,2-a]pyridin-2-yl)-2-fluorocyclopropane-1-carboxamide] | < 100 nM
12 | O=C(Nc1cn2cc(-c3c(Cl)c(F)c(Cn4nccn4)c4[nH]ncc34)ccc2n1)[C@@H]1C[C@@H]1F [Example 383, (1S,2S)-N-(6-(7-((2H-1,2,3-triazol-2-yl)methyl)-5-chloro-6-fluoro-1H-indazol-4-yl)imidazo[1,2-a]pyridin-2-yl)-2-fluorocyclopropane-1-carboxamide] | < 100 nM
13 | Nc1cc2[nH]ncc2c(-c2ccc3nc(NC(=O)[C@@H]4C[C@@H]4F)cn3c2)c1Cl [Example 284, (1S,2S)-N-(6-(6-amino-5-chloro-1H-indazol-4-yl)imidazo[1,2-a]pyridin-2-yl)-2-fluorocyclopropane-1-carboxamide] | 101 to 500 nM
14 | CNNc1c(F)c(Cl)c(-c2ccc3nc(NC(=O)[C@@H]4C[C@@H]4F)cn3c2)c2cn[nH]c12 [Example 317, (1S,2S)-N-(6-(5-chloro-6-fluoro-7-(2-methylhydrazineyl)-1H-indazol-4-yl)imidazo[1,2-a]pyridin-2-yl)-2-fluorocyclopropane-1-carboxamide] | < 100 nM
15 | CSc1c(F)c(F)c2[nH]ncc2c1-c1ccc2nc(NC(=O)[C@@H]3C[C@@H]3F)cn2c1 [Example 304, (1S,2S)-N-(6-(6,7-difluoro-5-(methylthio)-1H-indazol-4-yl)imidazo[1,2-a]pyridin-2-yl)-2-fluorocyclopropane-1-carboxamide] | < 100 nM

Results, then the molecule that gave them:

Row | IC50 | Compound
16 | < 100 nM | O=C(Nc1cc2cc(-c3c(C4CC4)c(F)cc4[nH]ncc34)ccn2n1)[C@@H]1C[C@@H]1F [Example 457, (1S,2S)-N-(5-(5-cyclopropyl-6-fluoro-1H-indazol-4-yl)pyrazolo[1,5-a]pyridin-2-yl)-2-fluorocyclopropane-1-carboxamide]
17 | < 100 nM | O=C(Nc1cc2cc(-c3c(C(F)F)c(F)cc4[nH]ncc34)ccn2n1)[C@@H]1C[C@@H]1F [Example 468, (1S,2S)-N-(5-(5-(difluoromethyl)-6-fluoro-1H-indazol-4-yl)pyrazolo[1,5-a]pyridin-2-yl)-2-fluorocyclopropane-1-carboxamide]
18 | > 1000 nM | O=C(O)c1c(F)c(Cl)c(-c2ccn3nc(NC(=O)[C@@H]4C[C@@H]4F)cc3c2)c2cn[nH]c12 [Example 551, 5-chloro-6-fluoro-4-(2-((1S,2S)-2-fluorocyclopropane-1-carboxamido)pyrazolo[1,5-a]pyridin-5-yl)-1H-indazole-7-carboxylic acid]
19 | 101 to 500 nM | CN(C)c1c(F)cc2[nH]ncc2c1-c1ccn2nc(NC(=O)[C@@H]3C[C@@H]3F)cc2c1 [Example 454, (1S,2S)-N-(5-(5-(dimethylamino)-6-fluoro-1H-indazol-4-yl)pyrazolo[1,5-a]pyridin-2-yl)-2-fluorocyclopropane-1-carboxamide]
20 | < 100 nM | O=C(Nc1cc2cc(-c3c(Cl)c(F)c(N4CCSCC4)c4[nH]ncc34)ccn2n1)[C@@H]1C[C@@H]1F [Example 631, (1S,2S)-N-(5-(5-chloro-6-fluoro-7-thiomorpholino-1H-indazol-4-yl)pyrazolo[1,5-a]pyridin-2-yl)-2-fluorocyclopropane-1-carboxamide]
21 | < 100 nM | CCNc1c(F)c(Cl)c(-c2ccn3nc(NC(=O)[C@@H]4C[C@@H]4F)cc3c2)c2cn[nH]c12 [Example 496, (1S,2S)-N-(5-(5-chloro-7-(ethylamino)-6-fluoro-1H-indazol-4-yl)pyrazolo[1,5-a]pyridin-2-yl)-2-fluorocyclopropane-1-carboxamide]
22 | < 100 nM | O=C(Nc1cc2cc(-c3c(Cl)c(F)c(N4CCC4)c4[nH]ncc34)ccn2n1)[C@@H]1C[C@@H]1F [Example 501, (1S,2S)-N-(5-(7-(azetidin-1-yl)-5-chloro-6-fluoro-1H-indazol-4-yl)pyrazolo[1,5-a]pyridin-2-yl)-2-fluorocyclopropane-1-carboxamide]
23 | < 100 nM | CN(C)C1CCC(N(C)c2c(F)c(Cl)c(-c3ccn4nc(NC(=O)[C@@H]5C[C@@H]5F)cc4c3)c3cn[nH]c23)CC1 (stereo partly drawn) [Example 502, (1S,2S)-N-(5-(5-chloro-7-((4-(dimethylamino)cyclohexyl)(methyl)amino)-6-fluoro-1H-indazol-4-yl)pyrazolo[1,5-a]pyridin-2-yl)-2-fluorocyclopropane-1-carboxamide]
